{
  "source": "paper PMC2950902",
  "about": "(Molecular Microbiology, 2010)",
  "key": {"P1 ParA [1]": {"target": "T1, P1 ParA (Escherichia coli, UniProt P07620)", "T1 sequence (P07620 1-398)": "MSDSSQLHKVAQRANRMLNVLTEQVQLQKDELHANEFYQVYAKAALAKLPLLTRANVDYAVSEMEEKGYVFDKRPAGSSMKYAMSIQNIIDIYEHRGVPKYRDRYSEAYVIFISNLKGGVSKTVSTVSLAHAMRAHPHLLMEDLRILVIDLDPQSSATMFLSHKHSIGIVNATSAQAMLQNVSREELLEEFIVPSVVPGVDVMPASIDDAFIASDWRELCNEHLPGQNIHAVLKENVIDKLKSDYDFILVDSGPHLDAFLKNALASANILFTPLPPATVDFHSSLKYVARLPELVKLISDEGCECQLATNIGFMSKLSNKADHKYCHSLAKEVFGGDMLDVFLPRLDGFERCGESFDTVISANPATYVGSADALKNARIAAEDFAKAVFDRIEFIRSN", "assay": "MANT-nucleotide fluorescence", "format": "binding", "details": "unlabelled ADP"}, "P1 ParA [2]": {"target": "T1, P1 ParA", "assay": "tryptophan fluorescence change", "format": "binding", "details": "1 mM nucleotide, Mg2+, 23°C"}},
  "data": [
    {"molecule": "Nc1ncnc2c1ncn2[C@@H]1O[C@H](COP(=O)(O)OP(=O)(O)O)[C@@H](O)[C@H]1O", "note": "[ADP]", "values": [
      {"measurement": "apparent Kd", "setting": "P1 ParA [1]", "value": "MANT-ADP bound ParA with similar affinity as ADP"}
    ]},
    {"molecule": "Nc1ncnc2c1ncn2[C@@H]1O[C@H](COP(=O)(O)OP(=O)(O)OP(O)(O)=S)[C@@H](O)[C@H]1O", "note": "[ATPγS]", "values": [
      {"measurement": "tryptophan fluorescence change", "setting": "P1 ParA [2]", "value": "ADP and ATPγS induced a small but reproducible increase in fluorescence"}
    ]}
  ]
}
